Results published in patent US7192746B2, “α-Isomaltosyltransferase, process for producing the same and use thereof” (Kabushiki Kaisha Hayashibara Seibutsu Kagaku Kenkyujo, priority 2000, dated 2007).

How the values were obtained:
Format in all cases: biochemical
[1] = system: α-isomaltosyl-transferring enzyme from Bacillus globisporus C9; assay: Specificity to transferring acceptor; conditions: panose as saccharide donor, 10 units/g substrate, 3.2% (w/v), 30° C., pH 6.0, 24 hours
How it was run: (§1)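 Candidate acceptor saccharides mixed with panose donor at equal concentration, 10 units/g substrate enzyme, total saccharide 3.2% (w/v), reacted 24 h at 30 °C, pH 6.0. Transfer product formation scored positive/negative by GLC (mono-/disaccharides) or HPLC (tri- and higher).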

[2] = system: α-isomaltosyl-transferring enzyme from Bacillus globisporus N75; assay: Specificity to transferring acceptor; conditions: panose as saccharide donor, 10 units/g substrate, 3.2% (w/v), 30° C., pH 6.0, 24 hours
How it was run: as §1

[3] = system: α-isomaltosyl-transferring enzyme from Arthrobacter ramosus S1; assay: Specificity to transferring acceptor; conditions: panose as saccharide donor, 10 units/g substrate, 3.2% (w/v), 30° C., pH 6.0, 24 hours
How it was run: as §1

[4] = system: α-isomaltosyl-transferring enzyme from Arthrobacter globiformis A19; assay: Specificity to transferring acceptor; conditions: partially purified enzyme, panose as saccharide donor, 10 units/g substrate, 3.2% (w/v), 30° C., pH 6.0, 24 hours
How it was run: as §1

[5] = system: α-isomaltosyl-transferring enzyme from Bacillus globisporus C11; assay: Specificity to transferring acceptor; conditions: panose as saccharide donor, 10 units/g substrate, 3.2% (w/v), 30° C., pH 6.0, 24 hours
How it was run: as §1

[6] = system: α-isomaltosyl-transferring enzyme from Bacillus globisporus C9; assay: Action on saccharides (substrates, TLC); design: key: −: there was found no substrate change before and after the enzymatic reaction; +: there were found both the reduction of substrate and the formation of cyclotetrasaccharide after the enzymatic reaction; conditions: 2 units/g substrate, 2% (w/v) substrate, 30° C., pH 6.0, 24 hours
Description: (§2) To examine the saccharides in the supernatant, they were separated from the supernatant by silica gel thin-layer chromatography (abbreviated as “TLC” hereinafter) using, as a developer, a mixture solution of n-butanol, pyridine, and water (=6:4:1), and, as a thin-layer plate, “[…] 60”, an aluminum plate (20×20 cm) for TLC commercialized by […]. The coloration of both the separated total sugars by the sulfuric acid-methanol method and the reducing saccharides by the diphenylamine-aniline method detected a non-reducing saccharide at a position with an Rf value of about 0.31, which was positive on the former detection method but negative on the latter detection method.
(§3) It was tested whether saccharides can be used as substrates for the α-isomaltosyl-transferring enzyme. For the purpose, a solution of maltose, maltotriose, maltotetraose, maltopentaose, maltohexaose, maltoheptaose, isomaltose, isomaltotriose, panose, isomaltosylmaltose, isopanose, α,α-trehalose, kojibiose, nigerose, α,β-trehalose, cellobiose, gentibiose, maltitol, maltotriitol, lactose, sucrose, α-cyclodextrin, β-cyclodextrin, γ-cyclodextrin, soluble starch, pullulan, or dextran was prepared. To each of the above solutions was added two units/g substrate of a purified specimen of either α-isomaltosyl-transferring enzyme from Bacillus globisporus C9 obtained by the method in Experiment 4, Bacillus globisporus C11 obtained by the method in Experiment 7, Bacillus globisporus N75 obtained by the method in Experiment 11, or Arthrobacter ramosus S1 obtained by the method in Experiment 15, or a partially purified α-isomaltosyl-transferring enzyme from Arthrobacter globiformis A19 obtained by the method in Experiment 15. The resulting each solution was adjusted to give a substrate concentration of 2% (w/v) and incubated at 30° C. and pH 6.0 for 24 hours. The enzyme solutions before and after the enzymatic reactions were respectively analyzed on TLC as disclosed in Experiment 1 to confirm whether the enzymes acted on these substrates.

[7] = system: α-isomaltosyl-transferring enzyme from Bacillus globisporus N75; assay: Action on saccharides (substrates, TLC); design: key: −: there was found no substrate change before and after the enzymatic reaction; +: there were found both the reduction of substrate and the formation of cyclotetrasaccharide after the enzymatic reaction; conditions: 2 units/g substrate, 2% (w/v) substrate, 30° C., pH 6.0, 24 hours
Description: as §2, §3

[8] = system: α-isomaltosyl-transferring enzyme from Arthrobacter ramosus S1; assay: Action on saccharides (substrates, TLC); design: key: −: there was found no substrate change before and after the enzymatic reaction; +: there were found both the reduction of substrate and the formation of cyclotetrasaccharide after the enzymatic reaction; conditions: 2 units/g substrate, 2% (w/v) substrate, 30° C., pH 6.0, 24 hours
Description: as §2, §3

[9] = system: α-isomaltosyl-transferring enzyme from Arthrobacter globiformis A19; assay: Action on saccharides (substrates, TLC); design: key: −: there was found no substrate change before and after the enzymatic reaction; +: there were found both the reduction of substrate and the formation of cyclotetrasaccharide after the enzymatic reaction; conditions: partially purified enzyme, 2 units/g substrate, 2% (w/v) substrate, 30° C., pH 6.0, 24 hours
Description: as §2, §3

[10] = system: α-isomaltosyl-transferring enzyme from Bacillus globisporus C11; assay: Action on saccharides (substrates, TLC); design: key: −: there was found no substrate change before and after the enzymatic reaction; +: there were found both the reduction of substrate and the formation of cyclotetrasaccharide after the enzymatic reaction; conditions: 2 units/g substrate, 2% (w/v) substrate, 30° C., pH 6.0, 24 hours
Description: as §2, §3

SMILES | Product of transferring reaction, Enzyme of Strain C9 [1] | Product of transferring reaction, Enzyme of Strain N75 [2] | Product of transferring reaction, Enzyme of Strain S1 [3] | Product of transferring reaction, Enzyme of Stain A19 [4] | Product of transferring reaction, Enzyme of Strain C11 [5] | Enzymatic action for forming cyclotetrasaccharide, Enzyme of Strain C9 [6] | Enzymatic action for forming cyclotetrasaccharide, Enzyme of Strain N75 [7] | Enzymatic action for forming cyclotetrasaccharide, Enzyme of Strain S1 [8] | Enzymatic action for forming cyclotetrasaccharide, Enzyme of Strain A19 [9] | Enzymatic action for forming cyclotetrasaccharide, Enzyme of Strain C11 [10]
OC[C@H]1O[C@H](OC[C@H]2OC(O)[C@H](O)[C@@H](O)[C@@H]2O)[C@H](O)[C@@H](O)[C@@H]1O (some centres unmarked) [Isomaltose, isomaltose] | ++ (a saccharide-transferred product was formed in an amount of over 10% to the total sugars) | ++ (a saccharide-transferred product was formed in an amount of over 10% to the total sugars) | ++ (a saccharide-transferred product was formed in an amount of over 10% to the total sugars) | ++ (a saccharide-transferred product was formed in an amount of over 10% to the total sugars) | ++ (a saccharide-transferred product was formed in an amount of over 10% to the total sugars) | − | − | − | − | −
OC[C@H]1O[C@@H](OC[C@H]2OC(O)[C@H](O)[C@@H](O)[C@@H]2O)[C@H](O)[C@@H](O)[C@@H]1O (some centres unmarked) [Gentibiose, gentibiose] | ++ (a saccharide-transferred product was formed in an amount of over 10% to the total sugars) | ++ (a saccharide-transferred product was formed in an amount of over 10% to the total sugars) | + (a saccharide-transferred product was formed in an amount of over one percent but below 10% to the total sugars) | + (a saccharide-transferred product was formed in an amount of over one percent but below 10% to the total sugars) | ++ (a saccharide-transferred product was formed in an amount of over 10% to the total sugars) | − | − | − | − | −
OC[C@H]1O[C@@H](O[C@H]2O[C@H](CO)[C@@H](O)[C@H](O)[C@H]2O)[C@H](O)[C@@H](O)[C@@H]1O [α,β-trehalose] | ++ (a saccharide-transferred product was formed in an amount of over 10% to the total sugars) | ++ (a saccharide-transferred product was formed in an amount of over 10% to the total sugars) | ++ (a saccharide-transferred product was formed in an amount of over 10% to the total sugars) | ++ (a saccharide-transferred product was formed in an amount of over 10% to the total sugars) | ++ (a saccharide-transferred product was formed in an amount of over 10% to the total sugars) | − | − | − | − | −
OC[C@H]1O[C@H](OC[C@H]2O[C@H](OC[C@H]3OC(O)[C@H](O)[C@@H](O)[C@@H]3O)[C@H](O)[C@@H](O)[C@@H]2O)[C@H](O)[C@@H](O)[C@@H]1O (some centres unmarked) [Isomaltotriose, isomaltotriose] | + (a saccharide-transferred product was formed in an amount of over one percent but below 10% to the total sugars) | + (a saccharide-transferred product was formed in an amount of over one percent but below 10% to the total sugars) | ++ (a saccharide-transferred product was formed in an amount of over 10% to the total sugars) | + (a saccharide-transferred product was formed in an amount of over one percent but below 10% to the total sugars) | + (a saccharide-transferred product was formed in an amount of over one percent but below 10% to the total sugars) | − | − | − | − | −
OC[C@H]1O[C@@](CO)(O[C@H]2O[C@H](CO)[C@@H](O)[C@H](O)[C@H]2O)[C@@H](O)[C@@H]1O [Sucrose, sucrose] | + (a saccharide-transferred product was formed in an amount of over one percent but below 10% to the total sugars) | + (a saccharide-transferred product was formed in an amount of over one percent but below 10% to the total sugars) | + (a saccharide-transferred product was formed in an amount of over one percent but below 10% to the total sugars) | + (a saccharide-transferred product was formed in an amount of over one percent but below 10% to the total sugars) | + (a saccharide-transferred product was formed in an amount of over one percent but below 10% to the total sugars) | − | − | − | − | −
